Data on 1 compound can be found in US20220040255A1, “CHEMOTHERAPEUTIC REMODELING OF THE GUT MICROBIOME” (THE SCRIPPS RESEARCH INSTITUTE, priority 2018, published 2022).

For assay [1], the system named is intestinal absorption of cholesterol. Description: fecal dual-isotope cholesterol absorption assay. The class given is in vivo, LDLr−/− mice. The note with it: 180 μM in drinking water, 2-wk treatment, WD. The procedure:
In vivo cholesterol absorption assay. This experiment was carried out courtesy of Carol S. Ryan, Debra J. Search, Ricardo A. Garcia, and David A. Gordon at Bristol Myers Squibb (Hopewell, N.J., USA). To assess the effects of c[wLwReQeR] (SEQ ID NO:11) on intestinal absorption of cholesterol, male LDLr^−/− mice (Jackson Laboratories) ranging from 8-10 weeks old were acclimated to single housing in standard solid bottom bedded cages for at least one week at BMS facilities. During the acclimation period, the mice were fed a chow diet ad libitum. At the start of the treatment period and for the duration of the study, mice were switched to high-fat, high-cholesterol Western diet (Research Diets D12108C) containing 1.25% cholesterol and 20% fat ad libitum. The peptide was administered in the drinking water ad libitum as a solution with 1% sucrose at 180 μM (˜35 mg/kg/day). […]
Following a 2-wk treatment period, cholesterol absorption was measured using a dual fecal isotope ratio method. […] Plasma (˜20 μl) was added to 5 ml of Opti-fluor Scintillation cocktail (Packard Bioscience #6013199) and counted on ^3H and ^14C channels to evaluate cholesterol efflux. Radioactivity in feces was analyzed as follows: for each animal, feces recovered over the 48 hours was dried overnight at 50° C. and 0.1 gram of dried feces was transferred to a glass tube. […]

The subject of assay [2] is gut microbiota metabolites. Briefly: fecal SCFA and amino acid measurements (LC-MS). It counts as in vivo, LDLr−/− mice. As to the method:
SCFA and amino acid measurements. Fecal SCFA and amino acid content was measured by liquid chromatography-mass spectrometry (LC-MS). The fecal samples were weighed and placed into 2 ml Omni tubes. Ethanol was added to bring the volume to 350 μl. Next, 4 μl of 500 μM d-FA-mix and 20 μl of 1 mM 3CHPA were added to each sample as internal standard. The samples were homogenized using an Omni bead beater at the speed of 4.5 m/s for 30 sec, and then centrifuged at 13,000 rpm for 15 min. 90 μl of the supernatants was transferred into glass HPLC vials. 30 μl of freshly prepared 4×3NPH solution (160 mM 3-nitrophenylhydrazine, 150 mM EDC, pyridine 12% vol, 50% acetonitrile) was added to each sample and the reactions were held at room temperature for 30 min. 2 μl of the sample was injected into the LC-MS (Agilent 1290 HPLC, 6550 qTOF). The concentration of each SCFA and amino acid was calculated based on a standard curve and normalized by the internal control and the feces weight.

Where a SMILES comes first, the peptide text is derived from it. [ ]: non-standard residue; d: D form.

`CC(C)C[C@@H]1NC(=O)[C@@H](Cc2c[nH]c3ccccc23)NC(=O)[C@H](CCCNC(=N)N)NC(=O)[C@@H](CCC(=O)O)NC(=O)[C@H](CCC(N)=O)NC(=O)[C@@H](CCC(=O)O)NC(=O)[C@H](CCCNC(=N)N)NC(=O)[C@@H](Cc2c[nH]c3ccccc23)NC1=O` [c[wLwReQeR]] (cyclo([dW]L[dW]R[dE]Q[dE]R)): the “absorption of dietary cholesterol” value in assay [1] is “did not reduce”. For the same compound, the “levels of fatty acids containing 4-6 carbons, including butyrate” value in assay [2] (fecal samples, two-week treatment) is on record as “increased levels”. Further, the “levels of tryptophan and phenylalanine in the feces” value in assay [2] (feces, two-week course) was “higher levels”.
